Tests used:
Assay type in all cases: cell-based
T-47D cells = experiment: Inhibition of cell proliferation in T-47D cells (CCK-8, 6 days); conditions: 6 days of treatment, Table 2
How it was run: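 Viability read-out was CCK-8 after 6 days of compound treatment (37 °C, 5% CO2) across graded concentrations. Cells were T-47D seeded at 3,000 per well in 1640 medium plus 10% FBS. IC50 was calculated against proliferation.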

MCF-7 cells = experiment: Inhibition of cell proliferation of MCF-7 cells (CCK-8, 6 days); conditions: 6 days of treatment, Table 4
Source text: Test Example 3 Inhibitory effect of the PROTAC compounds provided in the present disclosure on cell proliferation of MCF-7 cells
The complete medium required for MCF-7 cells (source ATCC) was DMEM (gibco, Product number :11995-065) basal medium containing 10% fetal bovine serum. MCF-7 cells were inoculated in 96-well plates at a density of 800 cells/well, and different concentrations of the PROTAC compounds 1-55 provided in the examples of the present disclosure and a positive control sample ARV-471 (source: Innochem) were prepared to treat the cells, and the cells were treated at 37°C in a cell culture incubator with 5% CO2 for 6 days. Cell viability was detected using a CCK-8 kit (Beyotime, Product number: C0040) according to the manufacturer's instructions. The IC50 values of each PROTAC compound after 6 days of treatment were calculated using GraphPadPrism software based on the inhibition rate, and the results are shown in Table 4. Table 4 IC50 values for inhibition of the proliferation of MCF-7 cells by the PROTAC compounds of the present disclosure and positive control sample

ERα [1] = molecular target: T1, ERα (Homo sapiens, UniProt P03372); experiment: Degradation of ERα in MCF-7 cells (immunoblotting, 4 h); conditions: 10nM compound
T1 sequence (P03372 1-595): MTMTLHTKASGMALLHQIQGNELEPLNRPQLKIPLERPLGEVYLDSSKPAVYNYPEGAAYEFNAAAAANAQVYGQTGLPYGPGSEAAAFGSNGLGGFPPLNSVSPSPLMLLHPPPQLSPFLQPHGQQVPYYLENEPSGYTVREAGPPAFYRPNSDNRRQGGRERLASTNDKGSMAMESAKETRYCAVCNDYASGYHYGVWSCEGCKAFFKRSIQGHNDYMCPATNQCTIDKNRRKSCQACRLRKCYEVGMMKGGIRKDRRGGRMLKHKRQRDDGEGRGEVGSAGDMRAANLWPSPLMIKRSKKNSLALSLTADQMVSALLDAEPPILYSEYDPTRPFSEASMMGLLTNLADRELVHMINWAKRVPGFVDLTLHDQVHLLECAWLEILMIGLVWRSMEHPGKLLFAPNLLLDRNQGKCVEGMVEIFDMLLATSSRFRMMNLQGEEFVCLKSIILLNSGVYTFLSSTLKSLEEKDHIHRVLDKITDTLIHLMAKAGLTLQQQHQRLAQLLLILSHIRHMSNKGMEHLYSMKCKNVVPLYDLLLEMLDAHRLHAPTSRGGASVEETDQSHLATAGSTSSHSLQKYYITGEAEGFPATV
How it was run: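 Degradation rate reflects ERα band intensity, corrected to an internal reference protein, relative to control. Values come from Western blotting of lysates from MCF-7 cells exposed 4 h at 37°C to compounds at final concentrations of 0.15-1000nM.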

ERα [2] = molecular target: T1, ERα; experiment: Degradation of ERα in T-47D cells (immunoblotting, 4 h); parameters: host or cells: T-47D
How it was run: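 ERα protein levels were assessed by immunoblot of RIPA lysates (with protease inhibitor) after 4 h exposure at 37°C. Compound was added in DMSO to T-47D cells at final concentrations of 0.15-1000 nM.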

AR protein = molecular target: T2, AR protein (Homo sapiens, UniProt P10275, T878A); experiment: Degradation of AR protein in LNCAP cells (Western blot, 8 h); conditions: LNCaP FGC cells
T2 construct: host or cells: LNCaP FGC
T2 sequence (P10275 1-920 T878A): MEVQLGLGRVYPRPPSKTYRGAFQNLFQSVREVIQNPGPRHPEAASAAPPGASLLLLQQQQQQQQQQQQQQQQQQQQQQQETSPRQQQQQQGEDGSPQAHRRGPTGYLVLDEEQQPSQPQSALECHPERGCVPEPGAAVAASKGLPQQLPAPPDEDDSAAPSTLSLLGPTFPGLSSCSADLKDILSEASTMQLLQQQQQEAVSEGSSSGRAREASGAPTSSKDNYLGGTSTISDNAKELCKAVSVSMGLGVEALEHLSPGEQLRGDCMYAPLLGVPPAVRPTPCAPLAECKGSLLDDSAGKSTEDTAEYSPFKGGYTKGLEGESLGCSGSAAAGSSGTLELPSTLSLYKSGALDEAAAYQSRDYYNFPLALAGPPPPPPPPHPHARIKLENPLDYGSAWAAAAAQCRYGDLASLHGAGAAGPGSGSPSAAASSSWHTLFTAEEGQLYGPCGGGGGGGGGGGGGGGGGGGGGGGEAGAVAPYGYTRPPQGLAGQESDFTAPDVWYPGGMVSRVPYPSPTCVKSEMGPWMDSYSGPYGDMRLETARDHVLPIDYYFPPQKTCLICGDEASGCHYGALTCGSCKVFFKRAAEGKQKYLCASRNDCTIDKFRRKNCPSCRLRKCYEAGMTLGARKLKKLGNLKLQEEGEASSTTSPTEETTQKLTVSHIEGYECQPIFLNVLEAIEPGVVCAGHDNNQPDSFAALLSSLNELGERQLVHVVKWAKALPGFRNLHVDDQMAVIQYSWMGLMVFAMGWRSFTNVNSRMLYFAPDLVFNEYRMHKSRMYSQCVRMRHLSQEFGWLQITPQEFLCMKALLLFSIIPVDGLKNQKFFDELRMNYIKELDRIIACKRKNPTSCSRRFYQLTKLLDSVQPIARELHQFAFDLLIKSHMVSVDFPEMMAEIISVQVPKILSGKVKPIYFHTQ
Experimental: After 8 h, the culture medium was discarded, and the cells were washed with PBS. After the cells were washed with PBS, RIPA lysis buffer containing 1% Protease Inhibitor Cocktail was added, and the total protein extract was obtained after lysis and centrifugation, and the protein concentration in the extract was detected by BCA method. Protein electrophoresis was carried out by SDS-PAGE, after which the proteins were transferred to PVDF (Millipore Sigma Catalog No. PSRP010R5) membrane by 100V constant voltage electrotransfer for 60 min, and the PVDF membrane was placed in 1×TBST solution with 5% milk and blocked at room temperature for 1h. […] The primary antibody solution was discarded, and the PVDF membrane was washed three times with 1× TBST for 5 min each. […] The secondary antibody solution was discarded, and the PVDF membrane was washed three times with 1× TBST for 5 min each. Western membrane imaging was performed using a dual-color infrared laser imaging system (Licor catalog number Odyssey CLX). Bands were analyzed in grayscale using the software Image Studio. For each sample, GAPDH protein bands were detected as internal reference. The degradation rates of the AR protein for the compounds and positive control sample were calculated based on the grayscale of the protein bands.

| Compound | IC50 (T-47D cells) [nM] | IC50 (MCF-7 cells) [nM] | Degradation rate (%) of ERα in MCF-7 cells (ERα [1]) [%] | Degradation rate (%) of ERα in T-47D cells (ERα [2]; 10nM compound) [%] | Degradation rates of the AR protein in LNCAP cells, 10 nM (%) (AR protein) | Degradation rates of the AR protein in LNCAP cells, 100 nM (%) (AR protein) | Degradation rate (%) of ERα in T-47D cells (ERα [2]; 1nM compound) [%] |
| --- | --- | --- | --- | --- | --- | --- | --- |
| O=C1CCC(N2C(=O)c3cc4c(cc3C2=O)OCC2(CCN(C3CCC5(CC3)CN(c3ccc(C6c7ccc(O)cc7CCC6c6ccccc6)cc3)C5)CC2)C4)C(=O)N1 (stereo not shown) [A14] | 44 | 4820 | 5 | 4 |  |  |  |
| O=C1CCC(N2Cc3cc4c(cc3C2=O)OC2(CC4)CN(C3CCC4(CC3)CCN(c3ccc(C5c6ccc(O)cc6CCC5c5ccccc5)cc3)CC4)C2)C(=O)N1 (stereo not shown) [A30] | 11.8 | 30200 | 23 | 46 |  |  |  |
| O=C1CCC(N2C(=O)c3cc4c(cc3C2=O)OC2(CC4)CCN(CC3CCN(c4ccc(C5c6ccc(O)cc6CCC5c5ccccc5)cc4)CC3)CC2)C(=O)N1 (stereo not shown) [A1] | 8 | 49500 | -17 | -11 |  |  |  |
| O=C1CCC(N2Cc3cc4c(cc3C2=O)CCC2(CCN(CC3CCN(c5ccc(C6c7ccc(O)cc7CCC6c6ccccc6)cc5)C3)CC2)O4)C(=O)N1 (stereo not shown) [B4] | 56.9 | 10000 | -34 | -9 |  |  |  |
| O=C1CCC(N2Cc3cc4c(cc3C2=O)OC2(CC4)CCN(CC3CCN(c4ccc(C5c6ccc(O)cc6CCC5c5ccccc5)cc4)C3)CC2)C(=O)N1 (stereo not shown) [B2] | 229 | 10200 | -26 | -92 |  |  |  |
| O=C1CCC(N2C(=O)c3cc4c(cc3C2=O)OC2(CC4)CCN(CC3CN(c4ccc(C5c6ccc(O)cc6CCC5c5ccccc5)cc4)C3)CC2)C(=O)N1 (stereo not shown) [A6] | 177 | 48200 | -17 | -23 |  |  |  |
| O=C1CCC(N2C(=O)c3cc4c(cc3C2=O)OC2(CC4)CCN(C3CC4(C3)CN(c3ccc(C5c6ccc(O)cc6CCC5c5ccccc5)cc3)C4)CC2)C(=O)N1 (stereo not shown) [O3] | 202 | 86800 |  |  |  |  |  |
| C[C@H]1CC2(CCN(c3ccc(N4CCC(CN5CCC6(CC5)COc5cc7c(cc56)CN(C5CCC(=O)NC5=O)C7=O)CC4)cc3)CC2)CN1c1ccc(C#N)c(Cl)c1 (stereo partly shown) [2-376] |  |  |  |  | 20 | 70 |  |
| O=C1CCC(N2Cc3cc4c(cc3C2=O)CCC2(CCN(C3CCC5(CC3)CCN(c3ccc(C6c7ccc(O)cc7CCC6c6ccccc6)cc3)CC5)CC2)O4)C(=O)N1 (stereo not shown) [A21] | 19 | 2520 | 4 | -15 |  |  |  |
| C[C@H]1CC2(CCN(c3ccc(C(=O)N4CCC(CN5CCC6(CC5)COc5cc7c(cc56)CN(C5CCC(=O)NC5=O)C7=O)CC4)cc3)CC2)CN1c1ccc(C#N)c(Cl)c1 (stereo partly shown) [2-384] |  |  |  |  | 48 | 63 |  |
| O=C1CCC(N2C(=O)c3cc4c(cc3C2=O)OCC2(CCN(CC3CN(c5ccc(C6c7ccc(O)cc7CCC6c6ccccc6)cc5)C3)CC2)C4)C(=O)N1 (stereo not shown) [O1] | 130 | 53600 |  |  |  |  |  |
| O=C1CCC(N2Cc3cc4c(cc3C2=O)OCC2(CCN(C3CC5(CCN(c6ccc(C7c8ccc(O)cc8CCC7c7ccccc7)cc6)CC5)C3)CC2)O4)C(=O)N1 (stereo not shown) [M7] | 17 | 13600 |  | 56 |  |  | 17 |
| O=C1CCC(N2Cc3cc4c(cc3C2=O)OCC2(CCN(C3CCC5(CC3)CCN(c3ccc(C6c7ccc(O)cc7CCC6c6ccccc6)cc3)CC5)CC2)O4)C(=O)N1 (stereo not shown) [A26] | 21 | 3780 | 13 | 40 |  |  |  |
| O=C1CCC(N2C(=O)c3cc4c(cc3C2=O)OC2(CC4)CCN(C3CC4(CCN(c5ccc(C6c7ccc(O)cc7CCC6c6ccccc6)cc5)CC4)C3)CC2)C(=O)N1 (stereo not shown) [A10] | 35 | 37200 | -3 | -37 |  |  |  |
| O=C1CCC(N2Cc3cc4c(cc3C2=O)CCC2(CCN(C3CC5(CCN(c6ccc(C7c8ccc(O)cc8CCC7c7ccccc7)cc6)CC5)C3)CC2)O4)C(=O)N1 (stereo not shown) [M6] | 11 | 4380 |  | 54 |  |  | 22 |
| O=C1CCC(N2Cc3cc4c(cc3C2=O)OC2(CC4)CCN(C3CC4(C3)CN(c3ccc(C5c6ccc(O)cc6CCC5c5ccccc5)cc3)C4)CC2)C(=O)N1 (stereo not shown) [M5] | 313 | 5660 |  |  |  |  |  |
| O=C1CCC(N2Cc3cc4c(cc3C2=O)CCC2(CCN(CC3CN(c5ccc(C6c7ccc(O)cc7CCC6c6ccccc6)cc5)C3)CC2)O4)C(=O)N1 (stereo not shown) [M1] | 117 | 44100 |  |  |  |  |  |
| O=C1CCC(N2Cc3cc4c(cc3C2=O)OC2(CC4)CN(C3CC4(CCN(c5ccc(C6c7ccc(O)cc7CCC6c6ccccc6)cc5)CC4)C3)C2)C(=O)N1 (stereo not shown) [M8] | 22 | 51700 |  |  |  |  |  |
